Like-named read-outs stand apart in the source and are kept apart here.
How the values were obtained:
Assay type in all cases: in vivo
[1] = system: Ctenocephalides felis (cat flea); assay: Contact activity against the adult cat flea (Table I); conditions: topical
Description: (§1) This test is designed to evaluate the contact activity of test compounds against the adult cat flea. Test compounds are dissolved in 100% acetone to 300, 100, 10 and 1 ppm. 100 μL of each of these dilutions is added to the bottom of a 20 mL glass scintillation vial with a pipettor. The vial is allowed to dry under a fume hood for 15 minutes. The bottom of the vial measures 4.909 cm^2. The amount of test compound applied by each dilution equals 6.2, 2.0, 0.2 and 0.02 μg/cm^2, respectively. Newly emerged adult cat fleas are anesthetized with CO2 to immobilize, and are counted into the scintillation vials with forceps. Five fleas are placed in each vial. These tests are done in replicates of two or three so that there are 10 to 15 fleas per rate/compound. Mortality readings are taken 4 and 24 hours after placing the fleas in the vials. […] Percent mortality is then calculated for each treatment.

[2] = system: Dermacentor variabilis (American dog tick); assay: Contact activity against the larval American dog tick (Table II); conditions: topical
Description: This test is designed to evaluate the contact activity of test compounds against the American dog tick. Test compounds are dissolved in 100% acetone to 1000, 300, 100, 10, 1 and 0.1 ppm. 100 μL of each of these dilutions is added to the bottom of a 20 mL glass scintillation vial with a pipettor. The vial is allowed to dry under a fume hood for 15 minutes. The vial is then turned in its side, and 250 μL of each dilution is applied to the sides of the vial. The vial is placed on a rolling machine and allowed to roll under the hood, coating the sides of the vial, until the acetone completely evaporates. The bottom of the vial measures 4.909 cm^2 and the sides measure 4.5 cm high×8.8 cm around, so that the total coated area of the scintillation vial measures 44.51 cm^2. The amount of test compound applied by each dilution equals 7.86, 2.36, 0.79, 0.079, 0.0079 and 0.00079 μg/cm^2, respectively. Unfed larval dog ticks are counted into the scintillation vials with a slightly damp paintbrush. Ten ticks are placed in each vial. These tests are done in replicates of two or three so that there are 20 to 30 ticks per rate/compound. Mortality readings are taken 4 and 24 hours after placing the ticks in the vials. To read the test, the vial is placed under a magnifying glass and tapped gently. […] Percent mortality is then calculated for each treatment.

[3] = system: Bovicola spp. (biting louse); assay: Activity against the adult biting louse (Table VI); conditions: dose 2.0 μg/cm^2
Description: This test is designed to evaluate the activity of test compounds against the biting louse. Test compounds are dissolved in 100% acetone to 300, 100 and 10 ppm. 100 μL of each of these dilutions is added to the bottom of a 20 mL glass scintillation vial with a pipettor. The vial is allowed to dry under a fume hood for 15 minutes. The bottom of the vial measures 4.909 cm^2. The amount of test compound applied by each dilution equals 6.1, 2.0 and 0.2 μg/cm^2, respectively. Included in all tests are two to three replications of untreated vials. Lice are collected from the host animal and are used within 4 hours. The lice are counted into the scintillation vials with a slightly damp paintbrush. Five adult lice are placed in each vial. These tests are done in replicates of two or three so that there are 10 to 15 lice per rate/compound. Mortality readings are taken at 2 and 4 hours after placing the lice in the vials. To read the test, the vial is placed under a magnifying glass. […] Percent mortality is then calculated for each treatment.

[4] = system: Ctenocephalides felis (cat flea); assay: whole plant or invertebrate; conditions: topical, 24 h, read-out: 24 Hour % Mortality
Description: as §1
This test evaluates the synergistic effect of piperonyl butoxide on the formula I compounds of this invention. Piperonyl butoxide (PBO) is added in an amount of 1.5% to a 1,000 ppm solution of a test compound in acetone. Dilutions are then made with acetone to provide solutions containing 300, 100, 10 and 1 ppm of the test compound and 0.45%, 0.15%, 0.015% and 0.0015% piperonyl butoxide, respectively. Solutions containing 1,000, 300, 100, 10 and 1 ppm of the test compound alone are used as the control. […]

[5] = system: adult, Pyrethroid-susceptible horn fly (Haematobia irritans); assay: Adult pyrethroid-susceptible horn fly, treated filter paper (Table III); conditions: topical, 6 h, read-out: 6 Hour % Mortality
Description: Test doses are expressed as μg of test substance per cm^2 of filter paper.
1) Prepare solutions of test compound in acetone such that 800 or 1000 μL contains the amount necessary to obtain the desired dose rate.
2) Pipette 800 or 1000 μL of test solution onto filter paper.
3) Filter papers are dried under a fume hood.
4) When dry, filter papers are placed in the petri dish tops. Dishes are generally held about 24 hours before test organism is added.
5) Two- to five-day-old horn flies (pyrethroid-susceptible or -resistant) which have had two or more blood meals are used in the assay. Flies are collected into a small vial from the holding cage. Vials are then chilled in a freezer for about 4 minutes to immobilize the flies. Immobilized flies are then distributed to petri dish bottoms, 12 to 25 flies per dish, then dishes are closed and inverted.
6) As soon as the flies become mobile (about 5 minutes), they are examined to detect any flies that are dead or injured. This number is subtracted from total number of flies in the dish.
7) Petri dishes are held at room temperature and examined at the desired time intervals which might be 10 minutes to 6 hours.
8) All dead flies are recorded at each examination time. A fly is considered dead if it cannot walk even though it may still be moving.
10) Percent mortality at any time period is calculated using the following formula: […]
Number of dead flies-number dead @5 min/Total number of flies-number dead
Percent mortality is then corrected for control mortality using Abbot's formula.

[6] = system: Musca domestica (house fly); assay: Activity against the adult house fly (Table V)
Description: This test is designed to evaluate the activity of test compounds against the house fly. Test compounds are dissolved in 100% acetone to 1000, 300, 100, 10 and 1 ppm. 100 μL of each of these dilutions is added to the bottom of a 20 mL glass scintillation vial with a pipettor. The vial is allowed to dry under a fume hood for 15 minutes. The vial is then turned on its side, and 250 μL of each dilution is applied to the sides of the vial. The vial is placed on a rolling machine and allowed to roll under the hood, coating the sides of the vial, until the acetone completely evaporates. The bottom of the vial measures 4.909 cm^2 and the sides measure 4.5 cm high×8.8 cm around, so that the total coated area of the scintillation vial measures 44.51 cm^2. The amount of test compound applied by each dilution equals 7.86, 2.36, 0.79, 0.079, and 0.0079 μg/cm^2, respectively. Included in all tests are two to three replications of untreated vials. Adult house flies which are five to seven days old are chilled in a freezer for five minutes to immobilize, and are placed on a sorting platform which provides a steady stream of CO2 to keep the flies immobile. Five flies are counted into each scintillation vial with forceps. The top of the vial is plugged with a wad of sheet cotton sufficient to contain the flies. These tests are done in replicates of two to four so that there are 10 to 20 flies per rate/compound. Mortality readings are taken 1 and 4 hours after placing the flies in the vials. Flies which are unable to stand when disturbed are considered dead. Percent mortality is then calculated for each treatment.

[7] = 4 h, read-out: 4 Hour % Mortality
[8] = 24 h, read-out: 24 Hour % Mortality
[9] = 4 hours, dose 0.079 μg/cm^2, read-out: 4 Hour % Mortality
[10] = 4 hours, dose 0.790 μg/cm^2, read-out: 4 Hour % Mortality
[11] = 4 hours, dose 2.360 μg/cm^2, read-out: 4 Hour % Mortality
[12] = 4 hours, dose 7.860 μg/cm^2, read-out: 4 Hour % Mortality
[13] = 24 hours, dose 0.079 μg/cm^2, read-out: 24 Hour % Mortality
[14] = 24 hours, dose 0.790 μg/cm^2, read-out: 24 Hour % Mortality
[15] = 24 hours, dose 2.360 μg/cm^2, read-out: 24 Hour % Mortality
[16] = 24 hours, dose 7.860 μg/cm^2, read-out: 24 Hour % Mortality
[17] = 1 h, read-out: 1 Hour % Mortality

| SMILES | mortality at 0.02 µg/cm2 [1, 7] [%] | mortality at 0.2 µg/cm2 [1, 7] [%] | mortality at 2 µg/cm2 [1, 7] [%] | mortality at 0.02 µg/cm2 [1, 8] [%] | mortality at 0.2 µg/cm2 [1, 8] [%] | mortality at 0.079 µg/cm2 [2, 9] [%] | mortality at 0.79 µg/cm2 [2, 10] [%] | mortality at 2.36 µg/cm2 [2, 11] [%] | mortality at 7.86 µg/cm2 [2, 12] [%] | mortality at 0.079 µg/cm2 [2, 13] [%] | mortality at 0.79 µg/cm2 [2, 14] [%] | mortality at 2.36 µg/cm2 [2, 15] [%] | mortality at 7.86 µg/cm2 [2, 16] [%] | other results |
| --- | --- | --- | --- | --- | --- | --- | --- | --- | --- | --- | --- | --- | --- | --- |
| F/C(=C\Cc1ccc(F)c(Oc2ccccc2)c1)C(c1ccc(Cl)cc1)C1CC1 (stereo not drawn) [Compound 5, 1-[1-(p-Chlorophenyl)-2-fluoro-4-(4-fluoro-3-phenoxyphenyl)-2-butenyl]cyclopropane, (Z)-] | 34 | 39 | 79 | 69 | 81 | 100 | 100 | 100 | 100 | 100 | 100 | 100 | 100 | mortality at 6.2 µg/cm2 ([1]; 4 hours, dose 6.20 μg/cm^2, read-out: 4 Hour % Mortality): 98%; mortality at 0.00079 µg/cm2 ([2]; 4 hours, dose 0.00079 μg/cm^2, read-out: 4 Hour % Mortality): 100%; mortality at 0.0079 µg/cm2 ([2]; 4 hours, dose 0.0079 μg/cm^2, read-out: 4 Hour % Mortality): 100%; mortality at 0.00079 µg/cm2 ([2]; 24 hours, dose 0.00079 μg/cm^2, read-out: 24 Hour % Mortality): 100%; mortality at 0.0079 µg/cm2 ([2]; 24 hours, dose 0.0079 μg/cm^2, read-out: 24 Hour % Mortality): 100%; 2 Hour % Mortality [3]: 92%; mortality at 2 µg/cm2 [4]: 100%; mortality at 6.2 µg/cm2 [4]: 100% |
| F/C(=C\Cc1ccc(F)c(Oc2ccc(F)cc2)c1)C(c1ccc(Cl)cc1)C1CC1 (racemic) [Compound 18] |  |  |  |  |  |  |  |  |  |  |  |  |  | mortality at 0.625 µg/cm2 [5]: 4%; mortality at 1.25 µg/cm2 [5]: 36%; mortality at 2.5 µg/cm2 [5]: 94%; mortality at 5 µg/cm2 [5]: 99%; mortality at 10 µg/cm2 [5]: 100% |
| CCOc1ccc(C(/C(F)=C/Cc2ccc(F)c(Oc3ccccc3)c2)C2CC2)cc1 (stereo not drawn) [Compound 10, 1-[1-(p-Ethoxyphenyl)-2-fluoro-4-(4-fluoro-3-phenoxyphenyl)-2-butenyl]cyclopropane, (Z)-] | 10 | 68 | 70 | 20 | 95 | 100 | 100 | 100 | 100 | 100 | 100 | 100 | 100 | mortality at 6.2 µg/cm2 [1, 7]: 100%; mortality at 2 µg/cm2 [1, 8]: 100%; mortality at 6.2 µg/cm2 [1, 8]: 100%; mortality at 0.079 µg/cm2 [6, 17]: 20%; mortality at 0.79 µg/cm2 [6, 17]: 20%; mortality at 2.36 µg/cm2 [6, 17]: 40%; mortality at 0.079 µg/cm2 [6, 7]: 60%; mortality at 2.36 µg/cm2 [6, 7]: 100%; mortality at 0.79 µg/cm2 [6, 10]: 75% |

Source: patent US6235754A, “Methods and compositions for protecting animals and humans against attack and infestation by arthropod and helminth parasites” (American Cyanamid Company, priority 1999, dated 2001)
